The record followed here is ChEMBL document CHEMBL1201862, “PubChem BioAssay data set” (2004).

One assay deals with Beta-galactosidase (Escherichia coli, UniProt Q8VNN2). In words: PubChem AID 485352. Format: functional.
The target in assay [1] is Type-1 angiotensin II receptor (Homo sapiens, UniProt P30556). Description: AT1 receptor antagonists, dose response, selectivity assay for APJ receptor antagonist project, cell-based, uHTS hits (AID 463214).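 Note: antagonist potency against angiotensin II stimulated AT1 response.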 Format: functional.
Assay [2] is described as follows: NIH-3T3 fibroblast cytotoxicity, dose response, cytotoxicity control, cell-based, fluorescence, Alamar Blue, secondary assay (AID 2327).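 Note: NIH-3T3 mouse fibroblasts cultured with fluconazole at 8 µg/mL.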 Format: functional.
Assay [3] is described as follows: C. albicans growth with fluconazole, confirmation, fluorescence, retest (AID 2467). Format: functional, cell-based.
In assay [4] the target is Beta-lactamase (Pseudomonas aeruginosa, UniProt Q79MP6).
The target in assay [5] is Serine/threonine-protein phosphatase (Candida dubliniensis (strain CD36 / CBS 7987 / NCPF 3949 / NRRLY-17841) (Yeast), UniProt B9W6M3). Description: calcineurin pathway inhibitors in yeast reporter, dose response, S. cerevisiae, CDRE-lacZ, luminescence, secondary (AID 2388).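 Note: yeast reporter cells carrying a calcineurin-responsive lacZ construct stimulated with calcium chloride; luminescent beta-galactosidase reporter signal in whole cells rather than isolated phosphatase activity; potency for inhibition where a drop in reporter signal means calcineurin blockade.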 Type of assay: functional, cell-based.
For assay [6], the target named is Beta-lactamase (Salmonella choleraesuis (strain SC-B67), UniProt Q5J463).
The target in assay [7] is T1, Microphthalmia-associated transcription factor (Homo sapiens, UniProt O75030).
T1 sequence (O75030 whole entry): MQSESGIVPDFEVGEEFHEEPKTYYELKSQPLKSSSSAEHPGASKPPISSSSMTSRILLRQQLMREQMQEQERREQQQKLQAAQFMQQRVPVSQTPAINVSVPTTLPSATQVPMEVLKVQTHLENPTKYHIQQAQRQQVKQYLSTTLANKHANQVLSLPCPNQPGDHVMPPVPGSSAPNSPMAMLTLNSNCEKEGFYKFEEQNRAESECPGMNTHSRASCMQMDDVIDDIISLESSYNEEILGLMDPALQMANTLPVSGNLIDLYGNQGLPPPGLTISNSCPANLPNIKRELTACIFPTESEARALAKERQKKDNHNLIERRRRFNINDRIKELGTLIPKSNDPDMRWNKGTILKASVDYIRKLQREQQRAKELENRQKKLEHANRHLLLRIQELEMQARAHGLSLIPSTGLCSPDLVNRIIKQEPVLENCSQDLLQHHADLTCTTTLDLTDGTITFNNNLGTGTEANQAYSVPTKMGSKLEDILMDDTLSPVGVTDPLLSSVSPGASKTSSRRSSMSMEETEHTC
In words: TRPM1 promoter luciferase signal decrease, dose response, MITF inhibitor project, cell-based, SK-MEL-5, cherry-picked, set 3 (AID 493073).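 Note: SK-MEL-5 melanoma cells with luciferase driven by the MITF target TRPM1 promoter.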 Format: functional.

Assay [8] addresses ATP-dependent molecular chaperone HSP82 (Candida albicans (strain WO-1) (Yeast), UniProt C4YTQ8). In words: loss of DOC-induced GRE-beta-galactosidase reporter signal, dose response, Hsp90 inhibitor project, S. cerevisiae, luminescence (AID 2400).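 Note: beta-galactosidase luminescence from glucocorticoid response element reporter as proxy for Hsp90 function; inhibitor potency where signal loss means Hsp90 inhibition.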 Type of assay: functional, cell-based.
Assay [9] has as its system A-375. Description: A375 melanoma cell viability reduction, dose response, counter-screen for MITF modulator project, cherry-pick samples, set 2 (AID 540335). Particulars: Homo sapiens. Type of assay: functional, cell-based.
The nature of assay [10]: inhibitors of intracellular T. cruzi replication, confirmation, NIH3T3 host cells, beta-gal luminescence (AID 2044).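 Note: intracellular parasites grown in NIH/3T3 mouse fibroblasts as host cells; luminescent beta-galactosidase reporter signal from transgenic T. cruzi replicating inside host cells; inhibitors lower the luminescence signal.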 Format: functional, cell-based.
Assay [11] can be described thus: cytotoxicity toward NIH3T3 fibroblasts, dose response, counter-screen, cell-based, ATP luminescence, mouse fibroblasts (AID 2010).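 Note: cells exposed to compound for about 90 hours before reading.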 Format: functional.
The next assay concerns Jurkat. In words: antigen receptor-induced NF-kB inhibitors, dose response, Jurkat, luciferase reporter, luminescence, B- and T-cell (AID 489004).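 Note: NF-kB luciferase reporter Jurkat cells stimulated with PMA plus ionomycin.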 Format: functional, cell-based. The note with it: Homo sapiens.
Assay [12] is described as follows: cytotoxicity in HEK-293T NF-kB-Luc cells, dose response, cytotoxicity control for B/T-cell NF-kB inhibitor project, cell-based, uHTS hits (AID 489019).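 Note: IC50 reflects cytotoxicity as loss of cell viability.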 Format: functional.
The target in assay [13] is T2, DNA repair protein RAD52 homolog (Homo sapiens, UniProt P43351).
T2 sequence (P43351 whole entry): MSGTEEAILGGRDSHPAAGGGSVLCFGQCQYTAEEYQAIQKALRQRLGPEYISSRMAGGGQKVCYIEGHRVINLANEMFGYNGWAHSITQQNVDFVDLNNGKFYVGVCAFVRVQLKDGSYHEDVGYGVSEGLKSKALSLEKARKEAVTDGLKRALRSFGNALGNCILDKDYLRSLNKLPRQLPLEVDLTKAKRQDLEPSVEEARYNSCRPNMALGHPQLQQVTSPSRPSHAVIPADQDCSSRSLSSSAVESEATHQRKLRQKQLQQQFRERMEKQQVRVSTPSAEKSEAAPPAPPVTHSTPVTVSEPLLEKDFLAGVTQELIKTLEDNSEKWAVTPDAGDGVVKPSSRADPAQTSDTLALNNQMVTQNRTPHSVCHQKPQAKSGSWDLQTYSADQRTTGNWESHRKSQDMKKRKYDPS
Format: functional, biochemical.

Assay [14] deals with T3, COUP transcription factor 2 (Homo sapiens, UniProt P24468).
T3 sequence (P24468 whole entry): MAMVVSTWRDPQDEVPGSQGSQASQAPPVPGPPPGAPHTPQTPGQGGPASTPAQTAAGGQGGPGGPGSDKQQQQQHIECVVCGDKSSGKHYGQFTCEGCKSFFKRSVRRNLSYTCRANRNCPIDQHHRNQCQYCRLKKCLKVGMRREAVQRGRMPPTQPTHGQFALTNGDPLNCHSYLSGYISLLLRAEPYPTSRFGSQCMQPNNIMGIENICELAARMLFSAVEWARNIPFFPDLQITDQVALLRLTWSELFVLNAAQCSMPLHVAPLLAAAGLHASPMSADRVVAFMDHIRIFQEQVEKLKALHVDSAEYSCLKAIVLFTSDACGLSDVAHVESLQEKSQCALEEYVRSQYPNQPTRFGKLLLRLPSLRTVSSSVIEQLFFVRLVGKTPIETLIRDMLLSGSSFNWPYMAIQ
In words: Luminescence-based cell-based high throughput dose response assay to identify inhibitors of COUP-TFII (NR2F2). Type of assay: functional.

Assay [15] addresses T4, DNA repair and recombination protein RAD54-like (Homo sapiens, UniProt Q92698).
T4 sequence (Q92698 whole entry): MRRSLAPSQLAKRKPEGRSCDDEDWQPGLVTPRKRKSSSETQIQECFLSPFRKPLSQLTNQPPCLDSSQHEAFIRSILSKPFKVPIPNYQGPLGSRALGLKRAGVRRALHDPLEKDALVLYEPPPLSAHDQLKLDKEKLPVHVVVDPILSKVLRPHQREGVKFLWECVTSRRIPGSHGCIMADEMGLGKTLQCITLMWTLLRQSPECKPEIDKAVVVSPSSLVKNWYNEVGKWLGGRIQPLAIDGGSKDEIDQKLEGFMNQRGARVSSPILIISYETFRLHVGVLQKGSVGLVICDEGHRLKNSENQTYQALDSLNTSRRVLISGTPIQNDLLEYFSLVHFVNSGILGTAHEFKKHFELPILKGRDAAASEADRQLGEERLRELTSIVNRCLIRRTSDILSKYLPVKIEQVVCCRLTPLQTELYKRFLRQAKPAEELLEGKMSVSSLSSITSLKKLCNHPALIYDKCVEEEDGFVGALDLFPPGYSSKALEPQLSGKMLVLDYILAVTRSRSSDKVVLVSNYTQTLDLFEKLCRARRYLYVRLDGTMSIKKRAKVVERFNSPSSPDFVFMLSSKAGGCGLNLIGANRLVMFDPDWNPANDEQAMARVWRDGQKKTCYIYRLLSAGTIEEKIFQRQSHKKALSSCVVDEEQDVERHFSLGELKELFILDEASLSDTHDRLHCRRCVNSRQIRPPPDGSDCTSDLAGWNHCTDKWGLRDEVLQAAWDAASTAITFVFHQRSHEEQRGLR
In words: inhibitors of human RAD54 branch migration, confirmation, biochemical, fluorescence, cherry-picked samples, dose series (AID 651657). Format: functional.

Another assay concerns Escherichia coli. Description: microbe, parasite or virus in culture.
The subject of assay [16] is A-375. Description: MITF: Counter assay: A375 proliferation Measured in Cell-Based System Using Plate Reader - 2084-03_Inhibitor_Dose_DryPowder_Activity. [Related pubchem assays (depositor defined):AID488944]. Type of assay: functional. Particulars: Homo sapiens.
The nature of assay [17]: A549 cell cytotoxicity, dose response, cytotoxicity control, plate reader, cherry-pick, antagonist series (AID 743412). Type of assay: functional, cell-based.
The nature of assay [18]: LGR2 antagonists, dose response, cell-based, HEK293, CRE-luciferase reporter, cherry pick, set 2 (AID 743343).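 Note: transfected cells were stimulated with diluted bursicon conditioned medium after compound addition.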 Type of assay: functional.
Assay [19] in a line: MC4R antagonists, dose response, counter-screen for LGR2 antagonist project, cell-based, plate reader, cherry pick (AID 743444).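 Note: transfected HEK 293 cells stimulated with alpha-MSH peptide; potency of inhibitors of the alpha-MSH evoked signal.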 Type of assay: functional.
Assay [20] is described as follows: HEK293 cell cytotoxicity, dose response, cytotoxicity control, plate reader, cherry-picked samples (AID 743446). Format: functional, cell-based.

Calls of active or inactive are those of the source. Bounds are passed on as bounds.

Chain of ATP-dependent molecular chaperone HSP82 (C4YTQ8 whole entry): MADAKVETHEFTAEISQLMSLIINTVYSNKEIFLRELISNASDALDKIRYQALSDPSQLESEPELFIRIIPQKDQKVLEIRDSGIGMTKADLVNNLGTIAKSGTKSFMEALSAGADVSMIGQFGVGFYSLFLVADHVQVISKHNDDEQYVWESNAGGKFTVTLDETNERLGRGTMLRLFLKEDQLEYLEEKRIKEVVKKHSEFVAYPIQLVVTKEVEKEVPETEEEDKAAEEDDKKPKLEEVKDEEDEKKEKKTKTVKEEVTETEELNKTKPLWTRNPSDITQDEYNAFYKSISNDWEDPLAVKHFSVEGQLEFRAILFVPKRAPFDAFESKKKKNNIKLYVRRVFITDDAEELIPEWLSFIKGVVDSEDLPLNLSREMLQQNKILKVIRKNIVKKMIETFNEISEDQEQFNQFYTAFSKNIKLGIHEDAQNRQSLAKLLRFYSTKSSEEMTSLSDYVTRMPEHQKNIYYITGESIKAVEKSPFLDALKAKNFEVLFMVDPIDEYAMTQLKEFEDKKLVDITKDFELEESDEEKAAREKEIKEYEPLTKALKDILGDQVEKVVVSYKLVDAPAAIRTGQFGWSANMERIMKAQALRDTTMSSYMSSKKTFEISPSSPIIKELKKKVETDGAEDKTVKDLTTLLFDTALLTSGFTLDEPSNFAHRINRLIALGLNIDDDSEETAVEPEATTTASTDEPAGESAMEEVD
Chain of Serine/threonine-protein phosphatase (B9W6M3 whole entry): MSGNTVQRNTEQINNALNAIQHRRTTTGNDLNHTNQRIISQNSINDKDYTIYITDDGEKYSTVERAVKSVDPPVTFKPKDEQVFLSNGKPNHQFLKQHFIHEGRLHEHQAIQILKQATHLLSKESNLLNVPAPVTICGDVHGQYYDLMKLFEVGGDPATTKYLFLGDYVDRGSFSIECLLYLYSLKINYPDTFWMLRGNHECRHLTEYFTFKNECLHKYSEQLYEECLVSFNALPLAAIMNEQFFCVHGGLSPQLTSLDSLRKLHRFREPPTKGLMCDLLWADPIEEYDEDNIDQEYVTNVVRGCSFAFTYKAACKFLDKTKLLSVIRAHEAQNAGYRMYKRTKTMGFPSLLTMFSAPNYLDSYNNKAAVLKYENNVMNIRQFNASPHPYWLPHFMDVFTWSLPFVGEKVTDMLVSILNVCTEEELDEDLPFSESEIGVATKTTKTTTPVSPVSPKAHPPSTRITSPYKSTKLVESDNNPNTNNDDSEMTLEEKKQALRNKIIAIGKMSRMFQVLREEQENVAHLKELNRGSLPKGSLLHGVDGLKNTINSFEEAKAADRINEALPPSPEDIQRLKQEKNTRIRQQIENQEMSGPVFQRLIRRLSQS
Chain of Beta-lactamase (Pseudomonas aeruginosa, UniProt Q79MP6) (Q79MP6 whole entry): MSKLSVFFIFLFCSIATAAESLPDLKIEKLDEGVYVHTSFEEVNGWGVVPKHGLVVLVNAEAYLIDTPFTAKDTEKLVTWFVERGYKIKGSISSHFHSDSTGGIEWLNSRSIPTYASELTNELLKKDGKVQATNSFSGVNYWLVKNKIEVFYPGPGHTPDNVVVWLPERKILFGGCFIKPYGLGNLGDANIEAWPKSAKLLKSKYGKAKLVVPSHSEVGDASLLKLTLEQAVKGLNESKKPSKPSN
Chain of Beta-galactosidase (Q8VNN2 whole entry): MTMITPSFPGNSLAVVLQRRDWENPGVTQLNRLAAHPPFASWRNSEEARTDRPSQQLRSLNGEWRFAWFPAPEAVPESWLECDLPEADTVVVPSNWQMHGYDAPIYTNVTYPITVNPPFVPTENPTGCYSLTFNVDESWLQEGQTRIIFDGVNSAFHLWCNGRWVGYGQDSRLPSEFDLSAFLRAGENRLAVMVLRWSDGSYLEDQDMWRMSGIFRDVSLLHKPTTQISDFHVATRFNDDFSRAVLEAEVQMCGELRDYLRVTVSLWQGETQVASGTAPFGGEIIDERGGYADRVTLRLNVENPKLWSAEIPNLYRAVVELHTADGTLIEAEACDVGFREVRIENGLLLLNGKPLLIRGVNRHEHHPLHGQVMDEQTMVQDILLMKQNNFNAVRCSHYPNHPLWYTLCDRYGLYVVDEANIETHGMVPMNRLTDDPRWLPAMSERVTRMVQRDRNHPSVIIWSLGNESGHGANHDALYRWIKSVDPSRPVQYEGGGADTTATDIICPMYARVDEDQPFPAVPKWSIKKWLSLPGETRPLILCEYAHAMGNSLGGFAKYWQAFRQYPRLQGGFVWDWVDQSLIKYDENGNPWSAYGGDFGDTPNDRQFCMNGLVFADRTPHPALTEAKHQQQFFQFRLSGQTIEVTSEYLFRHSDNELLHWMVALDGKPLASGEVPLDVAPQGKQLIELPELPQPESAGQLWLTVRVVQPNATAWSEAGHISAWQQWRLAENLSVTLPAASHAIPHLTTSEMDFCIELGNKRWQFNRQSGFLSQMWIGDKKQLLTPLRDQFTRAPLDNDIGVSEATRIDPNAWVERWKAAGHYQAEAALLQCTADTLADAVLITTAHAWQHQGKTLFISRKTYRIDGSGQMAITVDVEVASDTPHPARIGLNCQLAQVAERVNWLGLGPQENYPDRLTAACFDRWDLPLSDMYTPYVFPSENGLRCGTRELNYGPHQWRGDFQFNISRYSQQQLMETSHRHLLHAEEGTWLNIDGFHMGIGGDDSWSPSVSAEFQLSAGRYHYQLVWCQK
Chain of Type-1 angiotensin II receptor (P30556 whole entry): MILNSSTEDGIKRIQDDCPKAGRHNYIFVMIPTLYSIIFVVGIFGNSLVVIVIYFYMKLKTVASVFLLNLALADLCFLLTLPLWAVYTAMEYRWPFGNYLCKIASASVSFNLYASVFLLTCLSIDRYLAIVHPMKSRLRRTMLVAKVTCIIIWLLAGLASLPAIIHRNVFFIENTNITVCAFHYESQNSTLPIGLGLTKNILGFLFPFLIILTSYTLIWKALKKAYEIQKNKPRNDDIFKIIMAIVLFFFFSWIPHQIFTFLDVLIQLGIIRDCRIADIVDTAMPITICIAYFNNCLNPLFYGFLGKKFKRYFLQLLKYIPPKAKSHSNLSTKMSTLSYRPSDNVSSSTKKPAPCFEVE
Chain of Beta-lactamase (Salmonella choleraesuis (strain SC-B67), UniProt Q5J463) (Q5J463 whole entry): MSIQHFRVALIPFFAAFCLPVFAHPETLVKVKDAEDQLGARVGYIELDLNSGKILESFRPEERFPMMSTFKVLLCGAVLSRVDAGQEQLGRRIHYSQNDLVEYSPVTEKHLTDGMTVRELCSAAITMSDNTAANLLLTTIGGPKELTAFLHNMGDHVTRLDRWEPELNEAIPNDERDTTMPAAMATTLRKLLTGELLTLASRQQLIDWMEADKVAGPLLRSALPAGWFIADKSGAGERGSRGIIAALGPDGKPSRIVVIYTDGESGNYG

Consider `CN(C)CC(=O)c1ccc(-c2ccccc2)cc1`, for which the EC50 at Beta-galactosidase was > 40 µM (inactive). The 50% inhibitory concentration (IC50) in assay [1] is > 40 µM (not active).

Turning to `CC(C)n1cc(/C=C/c2cc[n+](C)cc2)c2ccccc21`, the 50% effective concentration (EC50) in [2] was 130 µM (inconclusive); in [3] it was 0.634 µM (active); in assay [5], > 180 µM (inactive); in [8], > 150 µM (inactive). The IC50 at Beta-lactamase [4] was 41.8 µM (inactive); on Beta-lactamase [6] it was 40.1 µM (inactive). Moreover, in [7], the AC50 is 8.14 µM (active).

`O=C(COc1ccc(Cl)cc1Cl)Nc1ccccn1`: the AC50 was 2.19 µM (active) in assay [7] and 18.4 µM (active) in the assay on A-375 [9].

In the case of `CC[n+]1c(C=C2C=C(C)OC(C)=C2)sc2ccccc21`, the EC50 in [2] was 126 µM (active); in assay [3] it was 0.239 µM (active); in assay [10], < 0.1 µM (active); in assay [5] it was 29.6 µM (active); in assay [11], > 60 µM (not active); in assay [8], 55.9 µM (active). Moreover, the concentration giving a half-maximal response (EC50) in “cells” was 0.006 µM (active). For the same molecule, the results for the IC50 (in the assay on Jurkat; in [12]; in assay [14]) were 3.99 µM (active), > 80 µM (inactive) and 4.51 µM (active), respectively. The half-maximal activity concentration (AC50) in [13] was 8.17 µM (active).

With `CCCCN(CC)CCN=C(S)Nc1ccc2nc(N3CCN(C)CC3)cc(C)c2c1`, the results for the EC50 in assay [10] and in [11] were 0.34 µM (active) and 4.9 µM (active), respectively. The half-maximal activity concentration (AC50) in [15] is 22.5 µM (active); in assay [13], 5.01 µM (active); in the assay on Escherichia coli it was 56 µM (active).

`CCCNC(=O)COC(=O)c1ccccc1C(=O)c1ccc(Cl)c([N+](=O)[O-])c1`: the AC50 in [7] is 8.34 µM (active); in the assay with A-375 [16], 34.3 µM (active); in assay [17], 7.32 µM (active); in assay [18], 8.85 µM (active); in assay [19], 10.6 µM (active); in [20], 10.7 µM (active).

In the case of `COc1ccc(OC)c(-n2c(SCC(=O)N3CCc4ccccc43)nc3c(c2=O)SCC3)c1`, the AC50 in the assay with Escherichia coli is 71.1 µM (active).
